Source: ChEMBL document CHEMBL5252613, “Discovery and anti-tumor activity of 4-(benzylamino)-6-(3,5-dimethylisoxazol-4-yl)quinolin-2(1H)-one (CG13250), a potent, selective and orally bioavailable BET bromodomain inhibitor” (Bioorg Med Chem Lett, 2023)

Legend:
MV4-11 = assay: Growth inhibition of human MV4-11 cells measured after 72 hrs; type: functional
[1] = target: T1, Bromodomain-containing protein 4 (Homo sapiens, UniProt O60885); assay: Inhibition of BRD4 bromodomain 1/2 (unknown origin) assessed as dissociation constant by DiscoveRx BROMOscan assay
[2] = target: T1, Bromodomain-containing protein 4; assay: Inhibition of BRD4 bromodomain 1/2 (unknown origin) by Alphascreen assay

| SMILES | GI50 (MV4-11) [nM] | Kd [1] [nM] | IC50 [2] [nM] |
| --- | --- | --- | --- |
| Cc1noc(C)c1-c1ccc2[nH]c(=O)cc(N3CCCCC3)c2c1 | 833 | 54 | – |
| Cc1noc(C)c1-c1ccc2[nH]c(=O)cc(NCc3cc(Cl)cc(Cl)c3)c2c1 | 1400 | 170 | – |
| Cc1noc(C)c1-c1ccc2[nH]c(=O)cc(NCc3ccccc3Cl)c2c1 | 1660 | 55 | – |
| Cc1ccc(-c2nnc(Sc3c(-c4ccccc4)c4cc(Br)ccc4[nH]c3=O)n2N)cc1 | 220 | – | 3700 |
| Cc1noc(C)c1-c1ccc2[nH]c(=O)cc(N3CCCC3)c2c1 | 1990 | 370 | – |
| Cc1noc(C)c1-c1ccc2[nH]c(=O)cc(NCC3CCCCC3)c2c1 | 3780 | 250 | – |
| Cc1noc(C)c1-c1ccc2[nH]c(=O)cc(NCc3ccc(Cl)cc3)c2c1 | 1700 | 210 | – |
| Cc1noc(C)c1-c1ccc2[nH]c(=O)cc(NCCc3ccccc3)c2c1 | 5720 | 490 | – |
| Cc1noc(C)c1-c1ccc2c(-c3ccccc3)cc(=O)[nH]c2c1 | 14000 | 7400 | 3100 |
| Cc1noc(C)c1-c1ccc2[nH]c(=O)cc(NCc3cccc(Br)c3)c2c1 | 731 | 53 | – |
